Data reported in PubChem BioAssay (NCI).
Values joined by “and” are separate entries in the source; they are usually repeats but may differ in a detail not shown here. Equal values may be shown once.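 Five compound concentrations were applied to cells in 96-well plates for 48 hours; endpoints were derived by simple linear interpolation of the resulting dose-response curve. At the GI50, growth is halved. TGI is the concentration that stops growth completely.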

Columns and labels:
Assay in all cases: NCI-60 cell line screen, 48 h
SF-295 CNS = system: SF-295 CNS
NCI-H460 lung = system: NCI-H460 lung
UO-31 renal = system: UO-31 renal
RPMI-8226 leukemia = system: RPMI-8226 leukemia
K-562 leukemia = system: K-562 leukemia
NCI-H23 lung = system: NCI-H23 lung
A549 NSCLC = system: A549 NSCLC
MDA-MB-435 = system: MDA-MB-435
OVCAR-4 ovarian = system: OVCAR-4 ovarian
MCF7 breast = system: MCF7 breast

CC(=O)OC1OC([C@H]2c3cccc(O)c3C(=O)c3c(O)cc(C)cc32)C(O)C(O)C1O (stereo partly specified)
GI50 (SF-295 CNS): 0.0817 µM | TGI (SF-295 CNS): 0.239 µM | GI50 (NCI-H460 lung): 0.105 µM | TGI (NCI-H460 lung): 1.41 µM | GI50 (UO-31 renal): 0.138 µM | GI50 (RPMI-8226 leukemia): 0.0779 µM | TGI (RPMI-8226 leukemia): 0.2 µM | GI50 (K-562 leukemia): 0.203 µM | TGI (K-562 leukemia): > 33.5 µM | GI50 (NCI-H23 lung): < 0.0161 µM | GI50 (A549 NSCLC): 0.0479 µM | TGI (A549 NSCLC): 15.1 µM | GI50 (MDA-MB-435): 0.0817 µM | TGI (MDA-MB-435): 2.72 µM | GI50 (OVCAR-4 ovarian): < 0.0402 µM | TGI (OVCAR-4 ovarian): > 89.2 µM | GI50 (MCF7 breast): 0.287 µM | TGI (MCF7 breast): 0.803 µM

Cc1cn(-c2cc(NC(=O)c3cccc(C#Cc4cccc5[nH]nc(N)c45)c3)cc(C(F)(F)F)c2)cn1
GI50 (SF-295 CNS): 4.26 µM | TGI (SF-295 CNS): 28.4 µM | GI50 (NCI-H460 lung): 4.13 µM | TGI (NCI-H460 lung): 16.7 µM | GI50 (UO-31 renal): 2.79 µM | TGI (UO-31 renal): 26.5 µM | GI50 (RPMI-8226 leukemia): 4.54 µM | TGI (RPMI-8226 leukemia): > 100 µM | TGI (K-562 leukemia): > 100 µM | GI50 (NCI-H23 lung): 4.61 µM | TGI (NCI-H23 lung): > 100 µM | GI50 (A549 NSCLC): 10.4 µM | TGI (A549 NSCLC): 35.2 µM | GI50 (MDA-MB-435): 3.74 µM | TGI (MDA-MB-435): 37 µM | GI50 (OVCAR-4 ovarian): 2.93 µM | TGI (OVCAR-4 ovarian): 21.2 µM | GI50 (MCF7 breast): 3.6 µM | TGI (MCF7 breast): > 100 µM

CCOC(=O)[CH-]C(=O)C12CC3CC(CC(C3)C1)C2.CCOC(=O)[CH-]C(=O)C12CC3CC(CC(C3)C1)C2.CC[O-].CC[O-].[Ti+4]
GI50 (SF-295 CNS): > 100 µM | TGI (SF-295 CNS): > 100 µM | GI50 (NCI-H460 lung): > 100 µM | TGI (NCI-H460 lung): > 100 µM | GI50 (UO-31 renal): > 100 µM | TGI (UO-31 renal): > 100 µM | GI50 (RPMI-8226 leukemia): > 100 µM | TGI (RPMI-8226 leukemia): > 100 µM | GI50 (K-562 leukemia): > 100 µM | TGI (K-562 leukemia): > 100 µM | GI50 (NCI-H23 lung): > 100 µM | TGI (NCI-H23 lung): > 100 µM | GI50 (A549 NSCLC): > 100 µM | TGI (A549 NSCLC): > 100 µM | GI50 (OVCAR-4 ovarian): > 100 µM | TGI (OVCAR-4 ovarian): > 100 µM

NCCCNCCS
TGI (SF-295 CNS): > 100 µM | TGI (NCI-H460 lung): > 100 µM | TGI (UO-31 renal): > 100 µM | GI50 (RPMI-8226 leukemia): > 100 µM and 20.6 µM | TGI (RPMI-8226 leukemia): > 100 µM | TGI (K-562 leukemia): > 100 µM | TGI (NCI-H23 lung): > 100 µM | TGI (A549 NSCLC): > 100 µM | TGI (MDA-MB-435): > 100 µM | TGI (OVCAR-4 ovarian): > 100 µM | TGI (MCF7 breast): > 100 µM

COc1ccc(NC(=O)CC/C(CC(=O)c2ccco2)=N/NC(=O)C(N)=O)cc1
TGI (SF-295 CNS): > 100 µM | TGI (NCI-H460 lung): > 100 µM | TGI (UO-31 renal): > 100 µM | TGI (RPMI-8226 leukemia): > 100 µM | TGI (K-562 leukemia): > 100 µM | TGI (NCI-H23 lung): > 100 µM | TGI (A549 NSCLC): > 100 µM | TGI (OVCAR-4 ovarian): > 100 µM

CCN1C(=O)/C(=C/c2c(Cl)[nH]c3cc(C)c(OC)cc23)c2ccccc21
GI50 (SF-295 CNS): 1.49 µM | TGI (SF-295 CNS): 40.6 µM | GI50 (NCI-H460 lung): 3.31 µM | TGI (NCI-H460 lung): 70.2 µM | GI50 (UO-31 renal): 2.87 µM | TGI (UO-31 renal): > 100 µM | GI50 (RPMI-8226 leukemia): 2.7 µM | TGI (RPMI-8226 leukemia): 24.1 µM | GI50 (K-562 leukemia): 3.03 µM | TGI (K-562 leukemia): > 100 µM | GI50 (NCI-H23 lung): 5.37 µM | TGI (NCI-H23 lung): > 100 µM | GI50 (A549 NSCLC): 2.84 µM | TGI (A549 NSCLC): > 100 µM | GI50 (MDA-MB-435): 0.315 µM | TGI (MDA-MB-435): 0.737 µM | GI50 (OVCAR-4 ovarian): 29.8 µM | TGI (OVCAR-4 ovarian): > 100 µM | GI50 (MCF7 breast): 0.409 µM | TGI (MCF7 breast): > 100 µM

C=C(C)C1CC2(C)C(C)CC(O)CC2C(OC(=O)C=C(C)C)C1O (stereo unspecified)
TGI (SF-295 CNS): 84.3 µM | TGI (NCI-H460 lung): 57.2 µM | TGI (UO-31 renal): 74.4 µM | TGI (K-562 leukemia): > 100 µM | TGI (NCI-H23 lung): > 100 µM | TGI (A549 NSCLC): > 100 µM | TGI (MDA-MB-435): > 100 µM | TGI (OVCAR-4 ovarian): > 100 µM | TGI (MCF7 breast): 86 µM

Cc1ccc(S(=O)(=O)N/N=C2\CCCCC23CCC(=O)NC3)cc1 (stereo unspecified)
TGI (NCI-H460 lung): > 100 µM | TGI (UO-31 renal): > 100 µM | TGI (RPMI-8226 leukemia): > 100 µM | TGI (K-562 leukemia): > 100 µM | TGI (A549 NSCLC): > 100 µM | TGI (OVCAR-4 ovarian): > 100 µM

CN(C)C/C=C/C(=O)Nc1ccc(C(=O)N[C@@]2(C)CCC[C@@H](Nc3ncc(Cl)c(-c4c[nH]c5ccccc45)n3)C2)nc1
GI50 (SF-295 CNS): 0.0126 µM | TGI (SF-295 CNS): 1.1 µM | GI50 (NCI-H460 lung): < 0.01 µM | TGI (NCI-H460 lung): 0.386 µM | GI50 (UO-31 renal): 0.0557 µM | TGI (UO-31 renal): 0.718 µM | GI50 (RPMI-8226 leukemia): < 0.01 µM | TGI (RPMI-8226 leukemia): 0.0244 µM | GI50 (K-562 leukemia): < 0.01 µM | TGI (K-562 leukemia): 5.32 µM | GI50 (NCI-H23 lung): < 0.01 µM | TGI (NCI-H23 lung): 0.0523 µM | GI50 (MDA-MB-435): 0.0108 µM | TGI (MDA-MB-435): 0.112 µM | GI50 (OVCAR-4 ovarian): 0.0141 µM | TGI (OVCAR-4 ovarian): 0.915 µM

N/N=C\c1c2ccccc2c(=O)n2c1oc1ccccc12
GI50 (SF-295 CNS): 2.61 µM | TGI (SF-295 CNS): 12.3 µM | GI50 (NCI-H460 lung): 5.47 µM | TGI (NCI-H460 lung): 18.4 µM | GI50 (UO-31 renal): 25.8 µM | TGI (UO-31 renal): 87.7 µM | GI50 (RPMI-8226 leukemia): 9.18 µM | TGI (RPMI-8226 leukemia): 29 µM | GI50 (K-562 leukemia): 20.8 µM | TGI (K-562 leukemia): 67.6 µM | GI50 (NCI-H23 lung): 15.7 µM | TGI (NCI-H23 lung): 29.9 µM | GI50 (A549 NSCLC): 11.2 µM | TGI (A549 NSCLC): 41.7 µM | GI50 (MDA-MB-435): 11.3 µM | TGI (MDA-MB-435): 23.8 µM | GI50 (OVCAR-4 ovarian): 13.1 µM | TGI (OVCAR-4 ovarian): > 100 µM

COc1ccc([C@@]2(O)c3c(ccc(O)c3OC)[C@H]2OC)c(OC)c1
TGI (SF-295 CNS): > 100 µM | TGI (NCI-H460 lung): > 100 µM | TGI (UO-31 renal): > 100 µM | TGI (RPMI-8226 leukemia): > 100 µM | TGI (K-562 leukemia): > 100 µM | TGI (NCI-H23 lung): > 100 µM | TGI (A549 NSCLC): > 100 µM | TGI (OVCAR-4 ovarian): > 100 µM

NC(CSC(c1ccccc1)(c1ccccc1)c1ccccc1)C(=O)NCC(=O)O (stereo unspecified)
GI50 (SF-295 CNS): 6.1 µM | TGI (SF-295 CNS): > 100 µM | GI50 (NCI-H460 lung): 4.27 µM | TGI (NCI-H460 lung): 78.8 µM | GI50 (UO-31 renal): 31.3 µM | TGI (UO-31 renal): > 100 µM | GI50 (RPMI-8226 leukemia): 3.42 µM | TGI (RPMI-8226 leukemia): 24.5 µM | GI50 (K-562 leukemia): 3.19 µM | TGI (K-562 leukemia): > 100 µM | GI50 (A549 NSCLC): 8 µM | TGI (A549 NSCLC): > 100 µM | GI50 (MDA-MB-435): 2.38 µM | TGI (MDA-MB-435): 6.8 µM | GI50 (OVCAR-4 ovarian): 17.4 µM | TGI (OVCAR-4 ovarian): 95.6 µM | GI50 (MCF7 breast): 3.87 µM | TGI (MCF7 breast): > 100 µM

Nc1ncc(-c2cnn(C3CCNCC3)c2)cc1-c1nc2cc(Cl)ccc2o1
GI50 (SF-295 CNS): 1.96 µM | TGI (SF-295 CNS): 3.68 µM | GI50 (NCI-H460 lung): 1.68 µM | TGI (NCI-H460 lung): 3.28 µM | GI50 (UO-31 renal): 0.484 µM | TGI (UO-31 renal): 1.02 µM | GI50 (K-562 leukemia): 0.218 µM | TGI (K-562 leukemia): 0.444 µM | GI50 (NCI-H23 lung): 1.62 µM | TGI (NCI-H23 lung): 3.14 µM | GI50 (A549 NSCLC): 1.53 µM | TGI (A549 NSCLC): 3.11 µM | GI50 (MDA-MB-435): 1.77 µM | TGI (MDA-MB-435): 3.36 µM | GI50 (MCF7 breast): 1.14 µM | TGI (MCF7 breast): 2.68 µM

[N-]=[N+]=NCCCn1c2c(c3ccc([N+](=O)[O-])cc3c1=O)C(=O)c1ccccc1-2
GI50 (SF-295 CNS): 4.82 µM | TGI (SF-295 CNS): > 100 µM | GI50 (NCI-H460 lung): 8.65 µM | TGI (NCI-H460 lung): > 100 µM | GI50 (UO-31 renal): > 100 µM | TGI (UO-31 renal): > 100 µM | GI50 (RPMI-8226 leukemia): 6.04 µM | TGI (RPMI-8226 leukemia): > 100 µM | GI50 (K-562 leukemia): 1.05 µM | TGI (K-562 leukemia): > 100 µM | GI50 (NCI-H23 lung): 9.25 µM | TGI (NCI-H23 lung): > 100 µM | GI50 (A549 NSCLC): 14.4 µM | TGI (A549 NSCLC): > 100 µM | GI50 (MDA-MB-435): > 100 µM | TGI (MDA-MB-435): > 100 µM | GI50 (MCF7 breast): 4.19 µM | TGI (MCF7 breast): > 100 µM

N#CCC(=O)N/N=C1/C(=O)N(c2ccc(Cl)cc2)C(=O)C(=O)C1c1nc2ccccc2s1 (stereo unspecified)
TGI (SF-295 CNS): > 100 µM | TGI (UO-31 renal): > 100 µM | TGI (NCI-H23 lung): > 100 µM | TGI (A549 NSCLC): > 100 µM | TGI (OVCAR-4 ovarian): > 100 µM
